Assay results as given in ChEMBL document CHEMBL1128516, “A check on rational drug design: crystal structure of a complex of human immunodeficiency virus type 1 protease with a novel gamma-turn mimetic inhibitor” (J Med Chem, 1995).
pKi: −log10 of the molar value.

Target: Human immunodeficiency virus type 1 protease (Human immunodeficiency virus 1, UniProt Q72874)
Assay: Competitive inhibitory activity against HIV-1 protease

Work on `COC(=O)C(NC(=O)C(NC(=O)[C@H](C)N1CCC(C(C)N(C)C(C)C(=O)O)=CC(Cc2ccccc2)C1=O)C(C)C)C(C)C` (stereo partly specified) yielded a pKi of 3.83.
